This passage reports remaining activity results from US12209079B2 (GENERAL INCORPORATED ASSOCIATION PHARMA VALLEY PROJECT …, priority 2017, dated 2025).

Assay [1] concerns the target rhIDO (recombinant human IDO) (Homo sapiens, UniProt P14902). In words: Enzyme assay using rhIDO (rate of kynurenine production). The assay is classed as biochemical. The following applies: 2 h; final concentration of the compound 10 μM; rate relative to reaction without compound; read-out: rhIDO-mediated kynurenine production. In outline:
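Kynurenine formation, expressed as % of uncompounded reaction after background subtraction, was read by absorbance at 490 nm following TCA stop, 50 °C hydrolysis and Ehrlich-type p-dimethylbenzaldehyde staining. Recombinant human IDO with ascorbate/methylene blue/catalase was pre-exposed to compound 10 min, then reacted 120 min at 37 °C after adding 2 mM tryptophan stock.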

For assay [2], the target named is T1, IDO in A431 cells (Homo sapiens, UniProt P14902).
T1 construct: endogenous in cells; host or cells: A431 cells, IFN-γ stimulated
T1 sequence (P14902 whole entry): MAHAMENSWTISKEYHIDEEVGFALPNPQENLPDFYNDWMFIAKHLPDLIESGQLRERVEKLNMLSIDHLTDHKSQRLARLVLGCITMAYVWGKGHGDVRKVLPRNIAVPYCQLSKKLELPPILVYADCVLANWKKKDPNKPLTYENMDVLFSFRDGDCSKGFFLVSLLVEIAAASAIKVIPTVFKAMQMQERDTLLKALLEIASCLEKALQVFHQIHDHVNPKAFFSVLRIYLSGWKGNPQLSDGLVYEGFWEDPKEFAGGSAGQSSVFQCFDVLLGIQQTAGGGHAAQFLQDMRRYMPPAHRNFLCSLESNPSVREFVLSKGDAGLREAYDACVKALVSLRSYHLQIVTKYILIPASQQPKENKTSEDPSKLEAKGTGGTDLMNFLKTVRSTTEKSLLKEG
The experiment in a line: IDO cell-based assay, kynurenine production in IFN-γ stimulated A431 cells. To be noted: A-431, 24 h; final concentration of the compound 10 μM; rate relative to culture without compound. In outline: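 Kynurenine output was read by absorbance at 460 nm after p-dimethylbenzaldehyde/trichloroacetic acid reagent, background-corrected, and given as % of untreated wells. Before the read, cells in 178 μM L-tryptophan medium had 1 h compound preincubation, then 24 h IFN-γ stimulation (added as 100 ng/mL dilution).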

In assay [3] the target is T2, TDO in A172 cells (Homo sapiens, UniProt P48775).
T2 construct: endogenous in cells; host or cells: A172 cells
T2 sequence (P48775 whole entry): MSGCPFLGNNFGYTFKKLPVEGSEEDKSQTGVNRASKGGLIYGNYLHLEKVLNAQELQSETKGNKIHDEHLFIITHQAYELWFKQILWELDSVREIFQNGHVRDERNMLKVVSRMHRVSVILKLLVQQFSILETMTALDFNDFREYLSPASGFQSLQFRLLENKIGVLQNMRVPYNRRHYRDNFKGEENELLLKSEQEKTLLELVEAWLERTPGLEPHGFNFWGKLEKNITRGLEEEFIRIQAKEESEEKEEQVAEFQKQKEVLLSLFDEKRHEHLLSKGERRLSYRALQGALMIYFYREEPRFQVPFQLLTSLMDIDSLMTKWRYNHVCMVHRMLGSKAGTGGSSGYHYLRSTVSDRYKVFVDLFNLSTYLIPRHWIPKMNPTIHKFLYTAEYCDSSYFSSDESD
The experiment in a line: TDO cell-based assay, kynurenine production in A172 cells. To be noted: A 172; final concentration of the compound 10 μM; rate relative to culture without compound. A digest of the protocol: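 A172 cells were preincubated with compound for 1 h, then given L-tryptophan (final 524 μM) for 24 h at 37 °C. Kynurenine was read at 460 nm after p-dimethylbenzaldehyde/TCA reagent, background-subtracted, and expressed as % of no-compound production.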

Assay [4] deals with rhTDO (recombinant human TDO) (Homo sapiens, UniProt P48775). In words: Enzyme assay using rhTDO (rate of kynurenine production). The assay is classed as biochemical. The following applies: 2 h; final concentration of the compound 10 μM; rate relative to reaction without compound; read-out: rhTDO-mediated kynurenine production. In outline: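 Kynurenine output, as percent of untreated control after background subtraction, read at 490 nm with p-dimethylbenzaldehyde following TCA quench and 15 min heating at 50 °C. Reaction: rhTDO with compound, 10 min preincubation then 120 min at 37 °C, started by 20 mM tryptophan stock, in phosphate/ascorbate/methylene blue/catalase.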
rhTDO (recombinant human TDO), sequence (P48775 whole entry): as above

Molecules are shown by their SMILES. Counter-ions that a name gives are not always drawn.

rhIDO (recombinant human IDO), sequence (P14902 whole entry): as the sequence (P14902 whole entry) above

For `N/C(=N\c1ccc(Cl)cc1)SCc1cc(F)c(F)cc1CS/C(N)=N/c1ccc(Cl)cc1` [Compound 132, (4,5-Difluoro-1,2-phenylene)bis(methylene) (E,E)-bis(N′-(4-chlorophenyl)carbamimidothioate) dihydrobromide], the remaining activity at 10 µM is -2% in assay [1], 11% in assay [2], 5% in assay [3] and 5% in assay [4].
With `Fc1ccc(CSC2=NCN(CCc3ccc(Cl)c(Cl)c3)CN2)c(CSC2=NCN(CCc3ccc(Cl)c(Cl)c3)CN2)c1` [Compound 133, 6,6′-(((4-Fluoro-1,2-phenylene)bis(methylene))bis(sulfanediyl))bis(3-(3,4-dichlorophenethyl)-1,2,3,4-tetrahydro-1,3,5-triazine)], the remaining activity at 10 µM turned out to be 1% in assay [1], 13% in assay [2], 6% in assay [3] and 10% in assay [4].
Consider `N/C(=N\c1ccc(F)c(Cl)c1)SCc1cc(Cl)c(Cl)cc1CS/C(N)=N/c1ccc(F)c(Cl)c1` [Compound 134, (4,5-Dichloro-1,2-phenylene)bis(methylene) (E,E)-bis(N′-(3-chloro-4-fluorophenyl)carbamimidothioate) dihydrobromide], for which the remaining activity at 10 µM in assay [1] is -2%; in assay [2] it was 10%; in assay [3] it was 5%; in assay [4], 5%.
In the case of `N/C(=N\c1ccc(Br)cc1)SCc1cc(Cl)c(Cl)cc1CS/C(N)=N/c1ccc(Br)cc1` [Compound 135, (4,5-Dichloro-1,2-phenylene)bis(methylene) (E,E)-bis(N′-(4-bromophenyl)carbamimidothioate) dihydrobromide], the remaining activity at 10 µM in assay [1] is -2%; in assay [2], 12%; in assay [3], 0%; in assay [4] it was 8%.
The like results for `N/C(=N\c1cccc(Br)c1)SCc1cc(Cl)c(Cl)cc1CS/C(N)=N/c1cccc(Br)c1` [Compound 136, (4,5-Dichloro-1,2-phenylene)bis(methylene) (E,E)-bis(N′-(3-bromophenyl)carbamimidothioate) dihydrobromide] were, in that order, -2%, 13%, 3% and 10%.
The like results for `N/C(=N\c1ccc(F)cc1)SCc1cc(Cl)c(Cl)cc1CS/C(N)=N/c1ccc(F)cc1` [Compound 137, (4,5-Dichloro-1,2-phenylene)bis(methylene) (E,E)-bis(N′-(4-fluorophenyl)carbamimidothioate) dihydrobromide] were, in that order, -3%, 8%, 2% and 9%.
In the case of `Cc1ccc(/N=C(\N)SCc2cc(Cl)c(Cl)cc2CS/C(N)=N/c2ccc(C)cc2)cc1` [Compound 138, (4,5-Dichloro-1,2-phenylene)bis(methylene) (E,E)-bis(N′-(p-tolyl)carbamimidothioate) dihydrobromide], the remaining activity at 10 µM in assay [1] is -1%; in assay [2], 8%; in assay [3], 0%; in assay [4], 14%.
For `Fc1ccc(CN2CN=C(SCc3cc(Cl)c(Cl)cc3CSC3=NCN(Cc4ccc(F)c(Cl)c4)CN3)NC2)cc1Cl` [Compound 139, 6,6′-(((4,5-Dichloro-1,2-phenylene)bis(methylene))bis(sulfanediyl))bis(3-(3-chloro-4-fluorobenzyl)-1,2,3,4-tetrahydro-1,3,5-triazine)], in that order: 24%, 8%, 11% and 14%.
The like results for `Fc1ccc(CSC2=NCN(CCc3ccc(C(F)(F)F)cc3)CN2)c(CSC2=NCN(CCc3ccc(C(F)(F)F)cc3)CN2)c1` [Compound 140, 6,6′-(((4-Fluoro-1,2-phenylene)bis(methylene))bis(sulfanediyl))bis(3-(4-(trifluoromethyl)phenethyl)-1,2,3,4-tetrahydro-1,3,5-triazine)] were, in that order, 34%, 15%, 9% and 16%.
The like results for `FC(F)(F)c1ccc(CCN2CN=C(SCc3ccc(Br)cc3CSC3=NCN(CCc4ccc(C(F)(F)F)cc4)CN3)NC2)cc1` [Compound 141, 6,6′-(((4-Bromo-1,2-phenylene)bis(methylene))bis(sulfanediyl))bis(3-(4-(trifluoromethyl)phenethyl)-1,2,3,4-tetrahydro-1,3,5-triazine)] were, in that order, 21%, 5%, 11% and 14%.
Regarding `FC(F)(F)c1ccc(CCN2CN=C(SCc3ccccc3CSC3=NCN(CCc4ccc(C(F)(F)F)cc4)CN3)NC2)cc1` [Compound 142, 1,2-Bis (((5-(4-(Trifluoromethyl)phenethyl)-1,4,5,6-tetrahydro-1,3,5-triazin-2-yl)thio)methyl)benzene], the remaining activity at 10 µM came to 43% in assay [1], 16% in assay [2], 6% in assay [3] and 18% in assay [4].
In the case of `FC(F)(F)c1ccc(CCN2CN=C(SCc3cc(Cl)c(Cl)cc3CSC3=NCN(CCc4ccc(C(F)(F)F)cc4)CN3)NC2)cc1` [Compound 143, 6,6′-(((4,5-Dichloro-1,2-phenylene)bis(methylene))bis(sulfanediyl))bis(3-(4-(trifluoromethyl)phenethyl)-1,2,3,4-tetrahydro-1,3,5-triazine)], the remaining activity at 10 µM in assay [1] was 17%; in assay [2], 9%; in assay [3], 7%; in assay [4], 6%.
For `Fc1ccc(CN2CN=C(SCc3ccc(Br)cc3CSC3=NCN(Cc4ccc(F)c(Cl)c4)CN3)NC2)cc1Cl` [Compound 144, 6,6′-(((4-Bromo-1,2-phenylene)bis(methylene))bis(sulfanediyl))bis(3-(3-chloro-4-fluorobenzyl)-1,2,3,4-tetrahydro-1,3,5-triazine)], in that order: 15%, 6%, 18% and 19%.
As to `Fc1ccc(CN2CN=C(SCc3ccccc3CSC3=NCN(Cc4ccc(F)c(Cl)c4)CN3)NC2)cc1Cl` [Compound 145, 1,2-Bis(((5-(3-Chloro-4-fluorobenzyl)-1,4,5,6-tetrahydro-1,3,5-triazin-2-yl)thio)methyl)benzene], the remaining activity at 10 µM in assay [1] came out at 69%; in assay [2], 18%; in assay [3], 12%; in assay [4] it was 40%.
For the molecule `Fc1ccc(CSC2=NCN(Cc3ccc(F)c(Cl)c3)CN2)c(CSC2=NCN(Cc3ccc(F)c(Cl)c3)CN2)c1` [Compound 146, 6,6′-(((4-Fluoro-1,2-phenylene)bis(methylene))bis(sulfanediyl))bis(3-(3-chloro-4-fluorobenzyl)-1,2,3,4-tetrahydro-1,3,5-triazine)], the remaining activity at 10 µM in assay [1] was determined as 54%; in assay [2], 16%; in assay [3] it was 17%; in assay [4], 26%.
